Assay results published in PubChem BioAssay AID1919006 (Molecular Pharmacology Branch, DTP, NCI, 2023).

Test system: 885512-296-R-J2-PDC complex spheroid growth, % test/control
Experiment: Anticancer human tumor 885512-296-R-J2-PDC patient-derived breast carcinoma cell line growth inhibition [AhR]
Settings: for IC50: curve of first compound; for viability, T/C: stronger effect = lower value
Summary of the method: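 Spheroids combined tumor cells with HUVEC endothelial cells and human MSCs as stroma. AhR antagonists were paired with standard or investigational drugs, each dosed in half-log steps down from near clinical Cmax, or from 10 microM where Cmax was unknown.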

[1] = second compound 0.1 µM, first compound 0.0316 µM
[2] = second compound 0.1 µM, first compound 0.1 µM
[3] = second compound 0.1 µM, first compound 0.316 µM
[4] = second compound 0.1 µM, first compound 1 µM
[5] = second compound 0.1 µM, first compound 3.16 µM
[6] = second compound 0.1 µM, first compound 10 µM
[7] = second compound 0.316 µM, first compound 0.0316 µM
[8] = second compound 0.316 µM, first compound 0.1 µM
[9] = second compound 0.316 µM, first compound 0.316 µM
[10] = second compound 0.316 µM, first compound 1 µM
[11] = second compound 0.316 µM, first compound 3.16 µM
[12] = second compound 0.316 µM, first compound 10 µM
[13] = second compound 1 µM, first compound 0.0316 µM
[14] = second compound 1 µM, first compound 0.1 µM
[15] = second compound 1 µM, first compound 0.316 µM
[16] = second compound 1 µM, first compound 1 µM
[17] = second compound 1 µM, first compound 3.16 µM
[18] = second compound 1 µM, first compound 10 µM
[19] = second compound 3.16 µM, first compound 0.0316 µM
[20] = second compound 3.16 µM, first compound 0.1 µM
[21] = second compound 3.16 µM, first compound 0.316 µM
[22] = second compound 3.16 µM, first compound 1 µM
[23] = second compound 3.16 µM, first compound 3.16 µM
[24] = second compound 3.16 µM, first compound 10 µM
[25] = second compound 10 µM, first compound 0.0316 µM
[26] = second compound 10 µM, first compound 0.1 µM
[27] = second compound 10 µM, first compound 0.316 µM
[28] = second compound 10 µM, first compound 1 µM
[29] = second compound 10 µM, first compound 3.16 µM
[30] = second compound 10 µM, first compound 10 µM
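Also: spheroids exposed to compounds for seven days.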

## CC(C)c1c(-c2ccccc2)nc2c(C#N)c[nH]n2c1=O + Cc1cncc(-c2nc(NCCc3c[nH]c4ccccc34)c3ncn(C(C)C)c3n2)c1
Second compound 0.1 µM
  IC50: > 10000 nM
Second compound 0.316 µM
  IC50: > 10000 nM
Second compound 1 µM
  IC50: > 10000 nM
Second compound 3.16 µM
  IC50: > 10000 nM
Second compound 10 µM
  IC50: < 31.6 nM
[1]
  viability, T/C: 108%
[2]
  viability, T/C: 108%
[3]
  viability, T/C: 101%
[4]
  viability, T/C: 109%
[5]
  viability, T/C: 97.1%
[6]
  viability, T/C: 86.6%
[7]
  viability, T/C: 104%
[8]
  viability, T/C: 108%
[9]
  viability, T/C: 105%
[10]
  viability, T/C: 93.3%
[11]
  viability, T/C: 102%
[12]
  viability, T/C: 89.3%
[13]
  viability, T/C: 94.5%
[14]
  viability, T/C: 95.4%
[15]
  viability, T/C: 83%
[16]
  viability, T/C: 83.2%
[17]
  viability, T/C: 80.8%
[18]
  viability, T/C: 81.8%
[19]
  viability, T/C: 62%
[20]
  viability, T/C: 59.7%
[21]
  viability, T/C: 56.2%
[22]
  viability, T/C: 62.1%
[23]
  viability, T/C: 60.5%
[24]
  viability, T/C: 52.3%
[25]
  viability, T/C: 17%
[26]
  viability, T/C: 18.7%
[27]
  viability, T/C: 17.9%
[28]
  viability, T/C: 14.5%
[29]
  viability, T/C: 17.9%
[30]
  viability, T/C: 17.9%

## COc1cccc2c1C(=O)c1c(O)c3c(c(O)c1C2=O)CC(O)(C(=O)CO)CC3OC1CC(N)C(O)C(C)O1 (stereo not given) + Cc1ccccc1N=Nc1ccc(NC(=O)c2ccnn2C)c(C)c1
Second compound 0.1 µM
  IC50: < 31.6 nM
Second compound 0.316 µM
  IC50: < 31.6 nM
Second compound 1 µM
  IC50: < 31.6 nM
Second compound 3.16 µM
  IC50: < 31.6 nM
Second compound 10 µM
  IC50: < 31.6 nM
[1]
  viability, T/C: 15.3%
[2]
  viability, T/C: 14.2%
[3]
  viability, T/C: 2.62%
[4]
  viability, T/C: 0.35%
[5]
  viability, T/C: 1.6%
[6]
  viability, T/C: 1.27%
[7]
  viability, T/C: 16%
[8]
  viability, T/C: 14.5%
[9]
  viability, T/C: 3.8%
[10]
  viability, T/C: 0.52%
[11]
  viability, T/C: 1.44%
[12]
  viability, T/C: 1.34%
[13]
  viability, T/C: 16%
[14]
  viability, T/C: 12.7%
[15]
  viability, T/C: 2.55%
[16]
  viability, T/C: 0.36%
[17]
  viability, T/C: 1.75%
[18]
  viability, T/C: 1.27%
[19]
  viability, T/C: 15.9%
[20]
  viability, T/C: 13.5%
[21]
  viability, T/C: 2.36%
[22]
  viability, T/C: 0.36%
[23]
  viability, T/C: 1.22%
[24]
  viability, T/C: 0.78%
[25]
  viability, T/C: 13.2%
[26]
  viability, T/C: 10.1%
[27]
  viability, T/C: 1.82%
[28]
  viability, T/C: 0.82%
[29]
  viability, T/C: 1.07%
[30]
  viability, T/C: 1.04%

## Nc1ccn(C2OC(CO)C(O)C2(F)F)c(=O)n1 (stereo not given) + Cc1ccccc1N=Nc1ccc(NC(=O)c2ccnn2C)c(C)c1
Second compound 0.1 µM
  IC50: < 31.6 nM
Second compound 0.316 µM
  IC50: < 31.6 nM
Second compound 1 µM
  IC50: < 31.6 nM
Second compound 3.16 µM
  IC50: < 31.6 nM
Second compound 10 µM
  IC50: < 31.6 nM
[1]
  viability, T/C: 3.22%
[2]
  viability, T/C: 3.21%
[3]
  viability, T/C: 3.37%
[4]
  viability, T/C: 3.91%
[5]
  viability, T/C: 5.19%
[6]
  viability, T/C: 4.82%
[7]
  viability, T/C: 3.01%
[8]
  viability, T/C: 3.13%
[9]
  viability, T/C: 3.98%
[10]
  viability, T/C: 4.91%
[11]
  viability, T/C: 7.26%
[12]
  viability, T/C: 4.9%
[13]
  viability, T/C: 3.39%
[14]
  viability, T/C: 3.19%
[15]
  viability, T/C: 5.43%
[16]
  viability, T/C: 5.88%
[17]
  viability, T/C: 5.6%
[18]
  viability, T/C: 6.93%
[19]
  viability, T/C: 3.31%
[20]
  viability, T/C: 3.09%
[21]
  viability, T/C: 5.1%
[22]
  viability, T/C: 5.57%
[23]
  viability, T/C: 4.88%
[24]
  viability, T/C: 5.93%
[25]
  viability, T/C: 3.17%
[26]
  viability, T/C: 3.46%
[27]
  viability, T/C: 4.17%
[28]
  viability, T/C: 4.62%
[29]
  viability, T/C: 5.33%
[30]
  viability, T/C: 5.12%

## NS(=O)(=O)OCC1CC(n2ccc3c(NC4CCc5ccccc54)ncnc32)CC1O (stereo not given) + Cc1ccccc1N=Nc1ccc(NC(=O)c2ccnn2C)c(C)c1
Second compound 0.1 µM
  IC50: 94.9 nM
Second compound 0.316 µM
  IC50: 90.1 nM
Second compound 1 µM
  IC50: 88.2 nM
Second compound 3.16 µM
  IC50: 80.5 nM
Second compound 10 µM
  IC50: 57.6 nM
[1]
  viability, T/C: 93.2%
[2]
  viability, T/C: 47.9%
[3]
  viability, T/C: 16.2%
[4]
  viability, T/C: 6.95%
[5]
  viability, T/C: 4.75%
[6]
  viability, T/C: 5.39%
[7]
  viability, T/C: 94.9%
[8]
  viability, T/C: 45.5%
[9]
  viability, T/C: 14.1%
[10]
  viability, T/C: 6.56%
[11]
  viability, T/C: 4.96%
[12]
  viability, T/C: 5.27%
[13]
  viability, T/C: 96.5%
[14]
  viability, T/C: 44.2%
[15]
  viability, T/C: 16.7%
[16]
  viability, T/C: 7.31%
[17]
  viability, T/C: 5.64%
[18]
  viability, T/C: 6.16%
[19]
  viability, T/C: 84.5%
[20]
  viability, T/C: 42%
[21]
  viability, T/C: 14.1%
[22]
  viability, T/C: 6.49%
[23]
  viability, T/C: 4.75%
[24]
  viability, T/C: 5.47%
[25]
  viability, T/C: 67%
[26]
  viability, T/C: 34.3%
[27]
  viability, T/C: 13.7%
[28]
  viability, T/C: 4.96%
[29]
  viability, T/C: 3.85%
[30]
  viability, T/C: 4.91%
